Data set [1] in a line: Solubility of oxime ester compound in solvent. Type of data set: physicochemical. To be noted: solvent PGM-Ac: Propylene glycol-1-monomethyl ether-2-acetate. The protocol:
When used as a photopolymerization initiator, they dissolve in propylene glycol-1-monomethyl ether-2-acetate or cyclohexanone as a solvent to a concentration of 1% by mass or higher, to satisfy the requirement as a photopolymerization initiator. The solubility measurement is preferably made at 20° to 30° C.

The nature of data set [2]: Solubility of oxime ester compound in solvent. Type of data set: physicochemical. To be noted: solvent CHN: cyclohexanone (footnote).

20 molecules from patent US11667730B2, “Oxime ester compound and photopolymerization initiator containing the same” (ADEKA CORPORATION, priority 2006, dated 2023) can be followed below.

The structures appear in SMILES notation.

With `CCCCC(CC)Cn1c2ccc(/C(=N/OC(C)=O)c3ccc(OC(C)COC)cc3)cc2c2cc([N+](=O)[O-])ccc21` (stereo not shown) [Compound No. 54], the “Solubility PGM-Ac” value in data set [1] worked out at 20%. Also, the “Solubility CHN” value in data set [2] is 14%.

Take `C=CC(=O)OCCn1c2ccc(/C(CCCCCCCCCCC)=N/OC(C)=O)cc2c2cc([N+](=O)[O-])ccc21` [compound 20]: in data set [1], the “Solubility PGM-Ac” value worked out at 0.16%. Moreover, the “Solubility CHN” value in data set [2] came to 3.7%.

For `CCCCC(CC)Cn1c2ccc(/C(=N/OC(C)=O)c3ccc(F)cc3C)cc2c2cc([N+](=O)[O-])ccc21` (stereo not shown) [compound 58], in data set [1], the “Solubility PGM-Ac” value was found to be 1.2%. Also, the “Solubility CHN” value in data set [2] came to 7.6%.

On to `CCn1c2ccc(/C(=N/OC(C)=O)c3ccc(OC(C)C)cc3OC(C)C)cc2c2cc([N+](=O)[O-])ccc21` [compound 57], for which, in data set [1], the “Solubility PGM-Ac” value stood at 2.4%. Also, the “Solubility CHN” value in data set [2] was found to be 12%.

Take `CCCCCCCCCCCCCCCCn1c2ccc(/C(C)=N/OC(C)=O)cc2c2cc([N+](=O)[O-])ccc21` [compound 47]: the “Solubility PGM-Ac” value in data set [1] was found to be 0.3%. In addition, the “Solubility CHN” value in data set [2] was found to be 5.3%.

On to `CCCCCCCCCCC/C(=N\OC(C)=O)c1ccc2c(c1)c1cc([N+](=O)[O-])ccc1n2CC(CC)CCCC` (stereo not shown) [compound 50], for which the “Solubility PGM-Ac” value in data set [1] is 6.0%. In addition, the “Solubility CHN” value in data set [2] stood at 45%.

For `CCCCCCCCCCCCCCn1c2ccc(/C(C)=N/OC(C)=O)cc2c2cc([N+](=O)[O-])ccc21` [compound 46], the “Solubility PGM-Ac” value in data set [1] was found to be 0.5%. For the same molecule, the “Solubility CHN” value in data set [2] is reported as 5.0%.

Regarding `CCn1c2ccc(/C(C)=N/OC(C)=O)cc2c2cc([N+](=O)[O-])ccc21` [compound 3], the “Solubility PGM-Ac” value in data set [1] was 0.12%. Further, in data set [2], the “Solubility CHN” value is given as 0.80%.

As for `CCOCCn1c2ccc(/C(C)=N/OC(C)=O)cc2c2cc([N+](=O)[O-])ccc21` [compound 7], the “Solubility PGM-Ac” value in data set [1] amounted to 0.38%. In data set [2], the “Solubility CHN” value is reported as 2.4%.

In the case of `COCC(C)OC(=O)CCCCCn1c2ccc(/C(C)=N/OC(C)=O)cc2c2cc([N+](=O)[O-])ccc21` (stereo not shown) [compound 12], the “Solubility PGM-Ac” value in data set [1] is reported as 25%. For the same molecule, in data set [2], the “Solubility CHN” value came to 31%.

Consider `COCC(C)OC(=O)Cn1c2ccc(/C(C)=N/OC(C)=O)cc2c2cc([N+](=O)[O-])ccc21` (stereo not shown) [compound 10], for which, in data set [1], the “Solubility PGM-Ac” value turned out to be 0.091%. Besides, in data set [2], the “Solubility CHN” value amounted to 0.54%.

`CCCCC(CC)Cn1c2ccc(/C(C)=N/OC(C)=O)cc2c2cc([N+](=O)[O-])ccc21` (stereo not shown) [Compound No. 1]: the “Solubility PGM-Ac” value in data set [1] came out at 4.1%. The “Solubility CHN” value in data set [2] was determined as 18.9%.

For the molecule `CCCCC(CC)Cn1c2ccc(/C(=N/OC(C)=O)c3ccccc3OCCOC)cc2c2cc([N+](=O)[O-])ccc21` (stereo not shown) [compound 55], the “Solubility PGM-Ac” value in data set [1] is given as 1.2%. Also, the “Solubility CHN” value in data set [2] is 3.2%.

With `CCCCC(CC)Cn1c2ccc(/C(=N/OC(C)=O)c3ccc(C(C)(C)C)cc3)cc2c2cc([N+](=O)[O-])ccc21` (stereo not shown) [compound 53], the “Solubility PGM-Ac” value in data set [1] was 5.0%. The “Solubility CHN” value in data set [2] is on record as 24%.

On to `CCn1c2ccc(/C(=N/OC(C)=O)c3ccc(OC(C)COC)cc3C)cc2c2cc([N+](=O)[O-])ccc21` (stereo not shown) [compound 33], for which the “Solubility PGM-Ac” value in data set [1] is recorded as 5.1%. In addition, in data set [2], the “Solubility CHN” value amounted to 27%.

In the case of `CCCCCCC/C(=N\OC(C)=O)c1ccc2c(c1)c1cc([N+](=O)[O-])ccc1n2CC(CC)CCCC` (stereo not shown) [compound 48], the “Solubility PGM-Ac” value in data set [1] stood at 5.0%. Moreover, the “Solubility CHN” value in data set [2] amounted to 42%.

On to `CCCCCCCCCCCCn1c2ccc(/C(C)=N/OC(C)=O)cc2c2cc([N+](=O)[O-])ccc21` [compound 45], for which the “Solubility PGM-Ac” value in data set [1] is recorded as 0.4%. Besides, in data set [2], the “Solubility CHN” value was determined as 7.2%.

Take `CCCCC(CC)Cn1c2ccc(/C(Cc3ccccc3)=N/OC(C)=O)cc2c2cc([N+](=O)[O-])ccc21` (stereo not shown) [compound 51]: the “Solubility PGM-Ac” value in data set [1] was 1.5%. Also, in data set [2], the “Solubility CHN” value came out at 13%.

In the case of `CCCCCCCCn1c2ccc(/C(C)=N/OC(C)=O)cc2c2cc([N+](=O)[O-])ccc21` [compound 2], in data set [1], the “Solubility PGM-Ac” value stood at 1.4%. Further, the “Solubility CHN” value in data set [2] was 9.2%.

In the case of `CCCCC(CC)Cn1c2ccc(/C(=N/OC(C)=O)c3ccc(OCC)cc3OCC)cc2c2cc([N+](=O)[O-])ccc21` (stereo not shown) [compound 56], the “Solubility PGM-Ac” value in data set [1] is reported as 3.6%. In data set [2], the “Solubility CHN” value amounted to 23%.
